| Structure (SMILES) | melting point |
| --- | --- |
| Cc1ccc(N(C)C(=S)Cl)cc1 | 56 to 59 °C |
| COS(=O)(=O)c1ccc(C)cc1 | 28.5 °C |
| COc1cc2c(c(OC)c1OC)-c1ccc(SC)c(=O)cc1C(NC(C)=O)CC2 (configuration not stated) | 193 °C |
| CCCCCCCCOC(=O)CCC | -55.6 °C |
| CNC(=O)ON=C(CSC)C(C)(C)C | 57 °C |
| Cc1ccc(S(=O)(=O)OC(C(F)(F)F)C(F)(F)F)cc1 | 39 to 40 °C |
| Cc1cc(C(F)(F)F)n2nc(N)c(/N=N/c3c(Br)cc(Br)cc3Br)c2n1 | 98 to 100 °C |
| O=C1C=C(Nc2cccc(O)c2)c2ccccc2C1=O | 300 °C |
| CC(=O)C(C(=O)OC1CC(C)CCC1C(C)C)C(C)C(C(C)=O)C(=O)OC1CC(C)CCC1C(C)C (configuration not stated) | 200 °C |
| O=S(O)c1ccc(Cl)cc1 | 99 °C |
| CN1CCN(C(=S)SSC(=S)N2CCN(C)CC2)CC1 | 142 to 143 °C |
| COc1cccc2cc(C(=O)C3CC(C)(c4c(C)cc(C)cc4C)C3)oc12 (configuration not stated) | 96 to 97 °C |
| CN(C)NC(=O)CCC(=O)O | 158 to 162 °C |
| Clc1c(Cl)c(Cl)c(C(Cl)Cl)c(Cl)c1Cl | 120 °C |
| CN(C)c1ccc([N+](=O)[O-])c(N)c1 | 134 to 139 °C |
| CC(=O)c1c(-c2ccc(Cl)cc2Cl)noc1C | 55 to 59 °C |
| O=C(Cl)c1csc(-c2ccc(C(F)(F)F)cc2)n1 | 96 to 98 °C |
| C=CCOc1cc(O)c(C(C)=O)c(O)c1 | 145 to 146 °C |
| O=[N+]([O-])c1cc([N+](=O)[O-])c(Cl)cc1Cl | 101 °C |
| CCCCCCF | -103 °C |
| CCCCOC(=O)c1ccccc1C(=O)OCCCC | -35 °C |
| Cc1cc(C)c(CS(=O)(=O)Cc2c(C)cc(C)cc2C)c(C)c1 | 297 to 300 °C |
| Nc1c(CN2CCCC2)c(=O)oc2ccccc12 | 197 °C |
| CCOC(=O)C1=C(C)OC(N)=C(c2nc3ccccc3s2)C1c1ccc(Cl)cc1 (configuration not stated) | 189 °C |
| CC(C)C=CC(=O)O | 35 °C |
| CC1(C)OC(=O)C(=Cc2cccs2)C(=O)O1 | 182 °C |

| Structure (SMILES) | melting point |
| --- | --- |
| CC1C=CCC1 (configuration not stated) | -127 °C |
| CCN(CC)CC(=O)OCC(=O)C1(O)CCC2C3CCC4=CC(=O)CCC4(C)C3C(O)CC21C (configuration not stated) | 162 °C |
| CCCCCCCCCCCC=CCCCCC(=O)O | 29.8 °C |
| CC(C)C(=O)Cl | -90 °C |
| COc1ccc(C(C)=O)cc1Cl | 75 °C |
| Fc1nccc(Br)c1Br | 76 °C |
| c1ccc(CP(c2ccccc2)c2ccccc2)cc1 | 75 °C |
| Cc1nc(C2CCN(C(=O)OC(C)(C)C)CC2)sc1CO | 150 to 153 °C |
| COC(=O)c1c(C(=O)OC)c(-c2ccccc2)c2c(Cl)nc(Cl)cc2c1Sc1ccccc1 | 178 °C |
| Oc1c(F)c(F)c(O)c(F)c1F | 172 to 174 °C |
| CCC(C)OC(C)CC (configuration not stated) | -100 °C |
| CCCF | -159 °C |
| O=C(O)C1CC(=O)N(Cc2ccc(C(F)(F)F)cc2)C1 (configuration not stated) | 128 to 130 °C |
| CC(C)c1cccc(C(C)C)c1O | 18 °C |
| Cc1[nH]c2ccccc2c1C=O | 204 to 205 °C |
| COP(=S)(OC)SCC(=O)N(C)C=O | 25.5 °C |
| Cc1cc(C)c(S(=O)(=O)n2cnc([N+](=O)[O-])n2)c(C)c1 | 132 to 134 °C |
| Cn1cc(Cl)c(C=O)n1 | 82 °C |
| Cc1ccc(C(=O)NS(=O)(=O)c2ccc(N)cc2)cc1C | 222 °C |
| c1ccc2c(c1)cnc1ccccc12 | 107 °C |
| N#Cc1c(F)cc(Cl)cc1F | 102 °C |
| C=C(C)CCCCCCCCCCCCCCC | 9 °C |
| COc1cc(Br)cc(OC)c1OC | 78.5 °C |
| COc1ccc(-c2csc(/C(C#N)=N\Nc3ccc(Br)cc3)n2)cc1 | 196 °C |
| Nc1c(Cl)cccc1C(=O)O | 190 °C |
| ClCc1noc(-c2ccsc2)n1 | 69 to 70 °C |

| Structure (SMILES) | melting point |
| --- | --- |
| O=[N+]([O-])c1ccc2[nH]c(=S)[nH]c2c1 | 275 °C |
| Brc1c[nH]cn1 | 126 to 132 °C |
| CCOC(=O)c1cncc(Br)c1 | 41 °C |
| Cc1cc2ccccc2cc1C | 105 °C |
| CN(C)CCO | -59 °C |
| CN1CCN(c2ncc(Br)c(OCc3ccccc3)n2)CC1 | 63 °C |
| c1ccc(-n2ccnc2)cc1 | 13 °C |
| COCC(=NOCC(=O)OC)c1cc(Oc2ccc(C(F)(F)F)cc2Cl)ccc1[N+](=O)[O-] | 58 °C |
| Cc1cccc2cc3c(ccc4ccccc43)cc12 | 156 °C |
| Nc1cccc2c1C(=O)c1cccc(Cl)c1C2=O | 207 °C |
| CCC(C)C1(CC)C(=O)NC(=O)NC1=O (configuration not stated) | 167 °C |
| CCS(=O)CC | 14 °C |
| CCOC(=O)N1COCc2c1ccc1cc3ccc4c(c3nc21)COCN4C(=O)OCC | 195 °C |
| NC(=O)c1ccccc1N1CCCCC1 | 115 to 118 °C |
| BrCCc1ccccc1 | -56 °C |
| CCC1C2=C(OC(=O)C1(C)C)c1ccc(OC)cc1CC2 (configuration not stated) | 142 to 143 °C |
| Cc1cc(-c2onc(C)c2C(=O)O)no1 | 167 °C |
| CSc1cc(-c2ccc(Oc3ccccc3)cc2)n[nH]1 | 97 to 98.5 °C |
| CCCN(CCOc1c(Cl)cc(Cl)cc1Cl)C(=O)n1ccnc1 | 48.3 °C |
| N#Cc1c(F)c(F)c(C#N)c(F)c1F | 198 °C |
| Nc1cccc2c(O)nnc(O)c12 | 330 °C |
| NNC(=O)c1ccncc1 | 171 °C |
| O=C(Cl)Cc1ccc2ccccc2c1 | 60 to 61 °C |
| Cc1ccc(C(=O)O)cc1I | 208 °C |
| O=C1c2ccccc2-c2c(O)cccc21 | 250 °C |

Results, then the compound that gave them:

| melting point | Structure (SMILES) |
| --- | --- |
| 218 °C | C/C(=N/NC(N)=O)C1=CC2(C)CCC1C2(C)C (configuration not stated) |
| 310 °C | O=C(O)c1ccc(O)c(C(=O)O)c1 |
| 105 °C | Cc1c(C#N)c2ccccc2n1C |
| 118 °C | Nc1nc(CC(=O)O)cs1 |
| 280 °C | NC(=O)c1cccc(C(N)=O)c1 |
| 40.5 °C | CCCCCCCCCCCCc1ccc(N)cc1 |
| 194 to 195 °C | COC1(C)OC(CNc2ccc(S(C)(=O)=O)cc2)C(CNc2ccc(S(C)(=O)=O)cc2)OC1(C)OC (configuration not stated) |
| 180 °C | Nc1ccc2ccccc2c1S(=O)(=O)O |
| 117 °C | O=C1OC(c2ccccc2)c2ccccc21 (configuration not stated) |
| 13 °C | CC(CCC(=O)O)c1ccccc1 (configuration not stated) |
| 93 °C | COC(=O)c1cc(C)n(C)n1 |
| 178 to 180 °C | CC1CNC(C(O)(C2=NCC(C)N2)C2=NCC(C)N2)=N1 (configuration not stated) |
| 16.5 °C | C[Si](C)(C)N(c1ccccc1)[Si](C)(C)C |
| 171 °C | C1=CC2=CC=Cc3c(c(c4cccc5cccc3c54)=C1)C2 |
| 84 to 85 °C | CC(C)(C)OC(=O)N1CCN(Cc2cccc([N+](=O)[O-])c2)CC1 |
| 119 to 121 °C | Cc1ccc(C(=O)C=Cc2ccc(F)cc2)cc1 |
| 182 °C | O=C(O)Cc1cc(I)c(Oc2ccc(O)c(I)c2)c(I)c1 |
| 39 °C | Clc1nsc2ccccc12 |
| 120 to 124 °C | O=C1CCCC(Cl)(Cl)C1(O)O |
| 192 to 194 °C | O=C(O)c1cccc2c1-c1ccccc1C2 |
| 192 to 193 °C | CC1C/C(=C\c2ccc([N+](=O)[O-])cc2)C(=O)/C(=C/c2ccc([N+](=O)[O-])cc2)C1 (configuration not stated) |
| 282 °C | Nc1cc2c(cc1Cl)C(=O)c1ccccc1C2=O |
| 142 to 144 °C | O=C(O)c1sccc1C1OCCO1 |
| 123 to 127 °C | CCCCCOc1ccc(C(=O)O)cc1 |
| 222 °C | CCn1cc(C(=O)O)c(=O)c2cc(F)c(N3CCNCC3)nc21 |
| 11 °C | NCCCO |
| 195 °C | O=[N+]([O-])c1ccc(-c2nnc3n2NC(c2ccccc2O)S3)cc1 (configuration not stated) |
| 164 °C | O=C(O)c1ccc(Cl)cc1Cl |

| melting point | Structure (SMILES) |
| --- | --- |
| 28 to 30 °C | COc1ccc(CCO)cc1 |
| 189 °C | NNC(=O)COc1ccc([N+](=O)[O-])cc1 |
| 231 °C | O=c1c2ccccc2c(=O)n2n1C1C=CC2C1 |
| 73 °C | O=C(O)c1cccc(SC(F)(F)F)c1 |
| 94 to 96 °C | COc1ccc([N+](=O)[O-])cc1Cl |
| 90 °C | N#Cc1ccnc(C#N)c1 |
| 135 °C | CCOC(=O)C1=C(C)NC(C)=C(C(=O)OCC)C1c1ccc2c(c1)OCO2 |
| 163 °C | NC(=O)c1ccccc1C(F)(F)F |
| 129 to 133 °C | O=C(O)c1cccnc1N1CCOCC1 |
| 236 °C | NC(=O)NCCC[C@H](N)C(=O)O |
| 182 °C | CC1(C)OC(=O)C(=Cc2ccc(-c3ccc(Br)cc3)o2)C(=O)O1 |
| 68 °C | Nc1cccc2nsnc12 |
| 178 °C | O=C(O)C=CC(=O)Nc1ccc(Cl)cc1Cl |
| 68 to 72 °C | C1COCCN2CCOCCOCCN(CCO1)CCOCCOCC2 |
| 146 °C | Cc1ccccc1NC(=O)c1ccccc1 |
| 124 °C | OCc1ccc(O)cc1 |
| 155 to 158 °C | CC(C)S(=O)(=O)c1cnc(N2CCCCC2)nc1N |
| 204 °C | CC(=O)C=P(c1ccccc1)(c1ccccc1)c1ccccc1 |
| 176 °C | CN(C)c1ccc(C2Nn3c(nnc3-c3ccc([N+](=O)[O-])cc3)S2)cc1 (configuration not stated) |
| 75 to 76 °C | CON(/C=C1\C(=O)C2(C)CCC1C2(C)C)c1ccccc1 (configuration not stated) |
| 223 °C | CC1(C)OC(=O)C(=NNc2ccc(C(=O)O)cc2)C(=O)O1 |
| 171 °C | O=c1nc2ccccc2nc(C(F)(F)F)c1NNc1cccc2ccccc12 |
| 152 °C | Cc1c(C)n2c(CBr)c(C)c(=O)n2c1=O |
| -28 °C | CC1CCSCC1 |
| 173 to 175 °C | N=C(N)NCCC[C@H](NC(=O)OCc1ccccc1)C(=O)O |
| 173 °C | O=C(CBr)c1ccc(C(=O)CBr)cc1 |
| 155 to 158 °C | Cc1cnnc2c1-c1nonc1CC2 |
